Measurements published in US20050245471A1, “Combination products for use in antitumoral treatment” (priority 2002, published 2005).

test system: CSF-1; test: Quantification of CSF-1 secreted by NS2T2A1 cells transfected with oligonucleotides (ELISA); assay type: cell-based, human; conditions: 250 nM oligonucleotide with 2.4 μg/ml cytofectin GS-3815, ELISA of culture medium 24 h after beginning of transfection, relative to non-transfected cell line
Method: Line NS2T2A1 is a line of cells from the human breast (Ma et al., Int. J. Cancer, 1998, 78: 112-119) obtained by mammoplasty, transformed by SV40. This line secretes CSF-1 linearly as a function of the cell growth.
The cells were cultivated in medium M5 (Gibco, France) complemented with 5% of -horse serum as described by Ma et al. (Int. J. Cancer, 1998, 78:112-119). Seeding was done in 6 well plates at a concentration, of 5×10^5 cells/ml/well. Transfection by oligonucleotides was done 24 h later, when the cells were in the exponential growth phase and they had reached 60% to 80% of confluence.
Transfection by oligonucleotides was done using cytofectin GS-3815 (Glen research, Sterling. Va.). Oligonucleotides and cytofectin were diluted separately in polystyrene tubes with the opti-MEM medium (Gibco, France), and the cytofectin was mixed with an equal volume of diluted oligonucleotides. The mix was left for 15 minutes at ambient temperature to enable the formation of oligonucleotide/cytofectin complexes. Finally, the M5 medium was added to the solution to obtain final concentrations equal to 2.4 μg/ml of cytofectin and 250 nM of oligonucleotides. All transfections were done in the M5 medium and in a final volume of 1 ml. Oligonucleotide/cytofectin complexes were left in contact with cells for 24 h. All steps described above were done under sterile conditions.
All experiments were done in triplicate for each concentration of oligonucleotides.
The quantity of CSF-1 secreted in the culture medium of NS2T2A1 cells was-measured by an ELISA test, 24 h after the beginning of the transfection, referring strictly to the protocol described by the supplier (R&D systems, Europe Ltd, UK). The results are expressed as a percentage of CSF-1 expressed by the transfected cells with respect to the CSF-1 expressed by a non-transfected cell line.

| Substance | Percentage of CSF-1 expressed [%] |
| --- | --- |
| SEQ ID No. 3: phosphorothioate oligonucleotide with pdU/pdC base substitutions, hybridising region 284-301 of SEQ ID No. 1 (CSF-1) (UCUGGAGCAGGUUAAU; listed as RNA, chemistry not fully specified) | 39 |
| SEQ ID No. 5: phosphorothioate oligonucleotide with pdU/pdC base substitutions, hybridising region 409-426 of SEQ ID No. 1 (CSF-1) (UUGUGGCGGUUAGGGUAG; listed as RNA, chemistry not fully specified) | 90 |
| SEQ ID No. 2: phosphorothioate oligonucleotide with pdU/pdC base substitutions, hybridising region 135-152 of SEQ ID No. 1 (CSF-1) (GGGAGGGUGCUGUACCGA; listed as RNA, chemistry not fully specified) | 70 |
| SEQ ID No. 4: phosphorothioate oligonucleotide with pdU/pdC base substitutions, hybridising region 341-358 of SEQ ID No. 1 (CSF-1) (ACACGAUGGAAUUCUUCC; listed as RNA, chemistry not fully specified) | 50 |
